Each structure is given as a SMILES string.

This data set has as its system p53 target genes (KIAA0284; PODXL1; RRAD; FHL2; TP53I3). Nature of the data set: p53 genotoxicity assay: RT-QMPSF of p53 target gene induction in EBV-immortalized human lymphocytes (wild type TP53 vs p.R175H). As to conditions: 0.3 μM doxorubicin; lymphocytes from a healthy control and from a Li-Fraumeni patient with p.R175H germline mutation; FIG. 2.

Description: In the first version of this assay EBV-immortalized human lymphocytes derived from healthy blood donor with wild type TP53 or Li-Fraumeni patients harboring germline heterozygous TP53 mutations are cultured in 24 well plates, during 5 h, with or without the chemicals to test. RNA is then extracted using Nucleospin RNAII kit (Macherey Nagel). […] RT-QMPSF analysis using 5 TP53 target genes and 2 control amplicons are performed on cells treated or not with the chemicals and profiles were compared after normalization on controls amplicons.
In each case, the TP53 genotype of EBV-immortalized lymphocytes was checked by sequencing and QMPSF analyses. EBV-transformed lymphocytes were maintained in RPMI 1640 medium (GIBCO, Invitrogen), supplemented with 10% heat-inactivated fetal bovine serum (Invitrogen) at 37° C. with 5% CO2. […]
After treatment cells were centrifuged, lysed using RA1 reagent from Nucleospin RNAII (Macherey Nagel), RNA was extracted following the manufacturer's instructions and quantified using a ND-1000 UV-Vis Spectrophotometer (NanoDrop technologies). The integrity of the RNA was assessed with the Agilent 2100 Bioanalyzer (Agilent), according to the manufacturer's instructions. […]

With `COc1cccc2c1C(=O)c1c(O)c3c(c(O)c1C2=O)C[C@@](O)(C(=O)CO)C[C@@H]3O[C@H]1C[C@H](N)[C@H](O)[C@H](C)O1` [doxorubicin], the “expression induction of p53 target genes (RT-QMPSF)” value is given as “showed clearly expression induction of 5 p53 target genes (KIAA0284; PODXL1; RRAD; FHL2; TP53I3) specifically in control lymphocytes”.

Values taken from patent publication US20160084823A1, “METHODS AND KITS FOR TESTING THE GE[…] AN AGENT” (INSERM (INSTITUT NATIONAL DE LA SANTÉ ET DE LA RECHERCHE …, priority 2013, published 2016).
